According to paper PMC6211297 (Biochemistry, 2017):

Target: PglF (Campylobacter jejuni, UniProt Q0P9D4)
Test: X-ray crystal structure, […] Å
Assay type: binding
Conditions: ternary complex with NAD(H); 10 mM UDP, pH 6.0; active site

Chain of PglF (Q0P9D4 244-590): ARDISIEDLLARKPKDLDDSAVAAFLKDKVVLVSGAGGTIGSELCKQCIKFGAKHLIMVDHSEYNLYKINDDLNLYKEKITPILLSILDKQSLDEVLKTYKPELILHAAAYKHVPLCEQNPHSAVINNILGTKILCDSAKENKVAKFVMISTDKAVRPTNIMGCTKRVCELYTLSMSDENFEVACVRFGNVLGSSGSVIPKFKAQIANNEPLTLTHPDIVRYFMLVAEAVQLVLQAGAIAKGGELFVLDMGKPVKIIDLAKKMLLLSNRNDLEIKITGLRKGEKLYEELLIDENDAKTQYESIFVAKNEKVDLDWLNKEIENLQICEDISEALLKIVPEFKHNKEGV

O=c1ccn([C@@H]2O[C@H](COP(=O)(O)OP(=O)(O)O)[C@@H](O)[C@H]2O)c(=O)[nH]1 [UDP]
X-ray crystal structure, 2.0 Å: The first structure determined in this investigation was that of the PglF/NAD(H)/UDP ternary complex
